{"source": "patent US20080287471A1", "about": "“4'-Substituted Carbovir And Abacavir-Derivatives As Well As Related Compounds With Hiv And Hcv Antiviral Activity” (priority 2003, published 2008)", "origin": "cited, not measured here", "tested_on": "HIV", "details": "after a short course of abacavir monotherapy", "data": [{"smiles": "Nc1nc(NC2CC2)c2ncn([C@H]3C=C[C@@H](CO)C3)c2n1", "note": "[abacavir, Abacavir]", "values": [{"measurement": "average reduction in viral load", "result": "more than 1.4 log 10 RNA copies/ml"}]}]}
